Results on 34 compounds are retold here after PubChem BioAssay AID743351 (Broad Institute, 2014).

For orientation: IC90 means the concentration needed for an effect of 90%.

Structures are written as SMILES. The source made the active and inactive calls. The rule behind the calls is not given here. Where only a bound is given, the exact number is not on record here.

The test concerns M. tuberculosis BioA-TetON overexpression strain, growth IC90. The test can be described thus: PubChem AID 743351.
On to `CCC(=O)N1CC[C@@H]2[C@@H](CO)N(C)c3ccc(-c4ccc(F)cc4)cc3[C@@H]21`, for which the IC90 is > 50 µM (inactive).

As for `CC(=O)c1ccc(N2CCN(C(=O)c3ccc4c(c3)OCO4)CC2)cc1`, the IC90 was > 50 µM (inactive).

Turning to `CN1c2ccc(-c3cccc(F)c3)cc2[C@H]2[C@H](CCN2C(=O)Nc2ccccc2F)[C@H]1CO`, the IC90 is > 50 µM (inactive).

Turning to `COc1ccccc1C(=O)N1CCN(c2ccc(C(C)=O)cc2)CC1`, the IC90 is > 50 µM (inactive).

In the case of `COc1ccccc1NC(=O)N1CC[C@@H]2[C@@H](CO)N(C)c3ccc(-c4cccc(F)c4)cc3[C@@H]21`, the IC90 is > 50 µM (inactive).

As for `CN1c2ccc(-c3cccc(F)c3)cc2[C@H]2[C@H](CCN2C(=O)Cc2cccnc2)[C@H]1CO`, the IC90 is > 50 µM (inactive).

With `CN1c2ccc(-c3cccc(F)c3)cc2[C@H]2[C@H](CCN2C(=O)c2ccc3c(c2)OCO3)[C@@H]1CO`, the IC90 is > 50 µM (inactive).

For the compound `COc1ccc(NC(=O)N2CC[C@@H]3[C@@H](CO)N(C)c4ccc(-c5ccc(F)cc5)cc4[C@@H]32)cc1`, the IC90 was > 50 µM (inactive).

As for `CNS(=O)(=O)c1ccc(N2CCN(C(=O)c3ccc4c(c3)OCO4)CC2)cc1`, the IC90 was > 50 µM (inactive).

As to `CN1c2ccc(-c3ccc(F)cc3)cc2[C@H]2[C@H](CCN2C(=O)Nc2cc(F)ccc2F)[C@H]1CO`, the IC90 was > 50 µM (inactive).

`CC(=O)c1ccc(N2CCN(C(=O)c3ccccc3Cl)CC2)cc1`: the IC90 was > 50 µM (inactive).

Turning to `CN1c2ccc(-c3ccc(F)cc3)cc2[C@H]2[C@H](CCN2C(=O)Nc2ccc(F)cc2)[C@H]1CO`, the IC90 was > 50 µM (inactive).

Turning to `CN1c2ccc(-c3cccc(F)c3)cc2[C@@H]2[C@@H](CCN2C(=O)c2ccc3c(c2)OCO3)[C@@H]1CO`, the IC90 was > 50 µM (inactive).

`CCCNC(=O)N1CC[C@@H]2[C@@H](CO)N(C)c3ccc(-c4ccc(F)cc4)cc3[C@@H]21`: the IC90 was > 50 µM (inactive).

As to `CC(=O)c1ccc(NCCNC(=O)c2ccc3c(c2)OCO3)cc1`, the IC90 is > 50 µM (inactive).

`COc1cccc(NC(=O)N2CC[C@@H]3[C@@H](CO)N(C)c4ccc(-c5cccc(F)c5)cc4[C@@H]32)c1`: the IC90 is > 50 µM (inactive).

For the compound `COCC(=O)N1CC[C@@H]2[C@@H](CO)N(C)c3ccc(-c4cccc(F)c4)cc3[C@@H]21`, the IC90 was > 50 µM (inactive).

Consider `COc1ccccc1NC(=O)N1CC[C@@H]2[C@@H](CO)N(C)c3ccc(-c4ccc(F)cc4)cc3[C@@H]21`, for which the IC90 was > 50 µM (inactive).

As for `CN1c2ccc(-c3ccc(F)cc3)cc2[C@H]2[C@H](CCN2C(=O)Cc2ccccn2)[C@H]1CO`, the IC90 was > 50 µM (inactive).

For `CC(=O)c1ccc(N2CC3(CN(C(=O)c4ccc5c(c4)OCO5)C3)C2)cc1`, the IC90 was > 50 µM (inactive).

As for `CN1c2ccc(-c3cccc(F)c3)cc2[C@H]2[C@H](CCN2C(=O)Cc2ccccc2)[C@H]1CO`, the IC90 is > 50 µM (inactive).

With `CN1c2ccc(-c3cccc(F)c3)cc2[C@H]2[C@H](CCN2C(=O)CCCCCCC(=O)O)[C@H]1CO`, the IC90 is > 50 µM (inactive).

Consider `CC(=O)c1ccc(N2CCN(C(=O)c3ccc4c(c3)OCO4)[C@H](C)C2)cc1`, for which the IC90 was > 50 µM (inactive).

As for `CNC(=O)c1ccc(N2CCN(C(=O)c3ccc4c(c3)OCO4)CC2)cc1`, the IC90 was > 50 µM (inactive).

Turning to `CN1c2ccc(-c3cccc(F)c3)cc2[C@H]2[C@H](CCN2C(=O)CCCCCCN)[C@H]1CO`, the IC90 was > 50 µM (inactive).

As for `CCCCCCCC(=O)N1CC[C@@H]2[C@@H](CO)N(C)c3ccc(-c4cccc(F)c4)cc3[C@@H]21`, the IC90 was > 50 µM (inactive).

On to `CC(C)NC(=O)N1CC[C@@H]2[C@@H](CO)N(C)c3ccc(-c4cccc(F)c4)cc3[C@@H]21`, for which the IC90 was > 50 µM (inactive).

For `CC(=O)c1ccc(N2CCN(C(=O)c3ccccc3F)CC2)cc1`, the IC90 was > 50 µM (inactive).

As for `COC(=O)CCCCCCC(=O)N1CC[C@@H]2[C@@H](CO)N(C)c3ccc(-c4cccc(F)c4)cc3[C@@H]21`, the IC90 was > 50 µM (inactive).

`CN1c2ccc(-c3ccc(F)cc3)cc2[C@H]2[C@H](CCN2C(=O)Cc2cccnc2)[C@H]1CO`: the IC90 is > 50 µM (inactive).

For the compound `CN(C)C(=O)c1ccc(N2CCN(C(=O)c3ccc4c(c3)OCO4)CC2)cc1`, the IC90 was > 50 µM (inactive).

As to `CC(C)NC(=O)N1CC[C@@H]2[C@@H](CO)N(C)c3ccc(-c4ccc(F)cc4)cc3[C@@H]21`, the IC90 is > 50 µM (inactive).

As for `CN1c2ccc(-c3cccc(F)c3)cc2[C@@H]2[C@@H](CCN2C(=O)c2ccc3c(c2)OCO3)[C@H]1CO`, the IC90 is > 50 µM (inactive).

For `COc1ccc(NC(=O)N2CC[C@@H]3[C@@H](CO)N(C)c4ccc(-c5cccc(F)c5)cc4[C@@H]32)cc1`, the IC90 is > 50 µM (inactive).
